Measured values taken from article PMC5451472, “Novel Locally Active Estrogens Accelerate Cutaneous Wound Healing-Part 2” (Scientific Reports, 2017).

Key:
[1] = system: ER transcriptional activity; experiment: Ex vivo BLI and luciferase enzymatic assay in organs of ERE-Luc mice; parameters: species or system mouse; conditions: 200 µg/kg s.c., 6 hours after treatment
Description: We next examined photon emission in a series of organs excised from the mice euthanized at 6 hours after treatment by measuring photon emission with the CCD camera (Fig. 6a) and by the more sensitive enzymatic assay in tissue extracts of each organ (Fig. 6b).
The selected organs were dissected from the animals who had received luciferine 20 min before euthanasia. The tissues were immediately subjected to ex vivo imaging session of 5 minutes. Photon emission was quantified with the Living Image Software (Caliper, PerkinElmer company) for each tissue and expressed as p/s/cm2/sr.
(§1) Luciferase enzymatic activity was measured in cells or selected tissue homogenates by a luminometer (Glomax™96 microplate luminometer; Promega) using Promega standard luciferin (Beetle Luciferin Potassium Salt) and expressed as Relative Light Units over 10 sec/μg protein (RLU/μg protein). Proteins concentrations were measured by Bradford.

ERs = target: T1, ERs (Homo sapiens, UniProt P03372); experiment: ER transactivation assay in ERE-Luc B17 cells (luciferase reporter); assay type: cell-based
T1 construct: endogenous in cells; host or cells: MCF-7, clone ERE-Luc B17 (only the luciferase reporter is transfected)
T1 sequence (P03372 1-595): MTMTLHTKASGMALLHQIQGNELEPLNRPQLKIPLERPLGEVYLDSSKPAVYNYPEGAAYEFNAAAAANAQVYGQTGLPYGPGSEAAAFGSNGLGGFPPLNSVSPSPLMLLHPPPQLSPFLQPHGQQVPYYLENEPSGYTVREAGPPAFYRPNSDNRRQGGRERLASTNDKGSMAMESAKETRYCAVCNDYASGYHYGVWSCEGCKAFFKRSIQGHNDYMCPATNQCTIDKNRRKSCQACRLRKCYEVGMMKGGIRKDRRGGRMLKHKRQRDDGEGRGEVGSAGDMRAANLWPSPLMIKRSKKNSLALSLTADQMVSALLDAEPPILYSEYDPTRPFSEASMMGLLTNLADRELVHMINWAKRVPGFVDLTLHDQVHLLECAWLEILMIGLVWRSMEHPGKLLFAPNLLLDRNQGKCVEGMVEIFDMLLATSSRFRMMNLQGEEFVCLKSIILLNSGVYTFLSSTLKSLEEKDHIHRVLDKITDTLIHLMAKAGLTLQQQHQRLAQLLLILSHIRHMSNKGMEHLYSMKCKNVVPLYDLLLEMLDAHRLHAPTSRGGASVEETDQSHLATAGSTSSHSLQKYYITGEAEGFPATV
Description: The ability of the novel compounds to transcriptionally activate ERs was tested in ERE-Luc B 17 cells, a clone of the breast cancer cell line MCF-7 stably transfected with a reporter constituted by the luciferase gene driven by an estrogen-regulated synthetic promoter previously generated and tested in our laboratories.
Cells were split twice a week by seeding 2 × 10^6 cells in 100 mm diameter Petri (Corning) dishes.
After 24 h cells were rinsed once with PBS before preparing the protein extract for the determination of luciferase content. Each experiment was carried out in duplicate.
as §1
Analysis of transactivation data and calculation of EC50 values were performed by means of sigmoidal dose-response (variable slope) using PRISM5 software (GraphPad Software Inc.).

MITO-Luc mice [2] = experiment: Macrophage count (Iba1 immunohistochemistry) around the wound site; assay type: in vivo, mouse; conditions: 200 µg/kg s.c., 72 hours after treatment
Description: To better understand whether the healing effect of 1e could be attributed to its anti-inflammatory action, at the end of in vivo imaging (72 hours after treatments) the tissue surrounding the wound was dissected and subjected immunohistochemical analysis using the pan macrophage marker Iba1. […] This observation confirmed that the estrogenic compounds were able to regulate the immune response at local level.
In particular, the criteria for the assignation of granulations value are: 1 = wound bed partially covered with granulation tissue; 2 = thin granulation over the whole wound bed; 3 = thick granulation over the whole wound bed. Evaluation of macrophages was done through a specific antibody and digital image analysis: 4 µm sections from each wound healing sample were immunostained with primary rabbit […] antibody against Iba1 antigen (Wako; #019-19741) to assess the number of macrophages.
The number of positive cells were counted using the ImageJ analysis program (http://rsb.info.nih.gov/ij/) in 400x microscopic fields selected at the periphery of the wound area.

MITO-Luc mice [3] = experiment: Wound area measurement in MITO-Luc mice; assay type: in vivo, mouse; conditions: 200 µg/kg s.c., 72 hours after treatment (vehicle 50%)
Description: To investigate to which extent the increased proliferation observed after the pharmacological treatments was functional to the healing process, we measured the size of the wound (Fig. 9a).
Ovariectomy was carried out as previously described. Wound healing was done after shaving by VEET depilatory cream a day before the treatment. The 1 cm full-thickness incisional wound was made through the skin and panniculus carnosus muscle of ovariectomized MITO-luc using a surgical scalpel (blade n°10, carbon steel, Swann-Morton Ltd). Round full-thickness wounds were done by cutting out a section of full-thickness skin (around 9 mm in diameter) using fine scissors on the dorsal skin of the isoflurane-anesthetized animal. For in vivo treatment the compounds were administered onto the subcutaneous area surrounding the wound by multiple subcutaneous injection, immediately after the generation of the wound.

Q: How did the “bioluminescence in excised organs (ex vivo BLI, enzymatic luciferase assay)” value [1] turn out when CCCCOC(=O)CCC#C[C@]1(O)CC[C@H]2[C@@H]3CCc4cc(O)ccc4[C@H]3CC[C@@]21C [1e, 3,17β-Hydroxy-17α-(4′carbobutoxy-1′-butyn-1′-yl)estra-1,3,5-(10)-triene] was run?
A: did not induce bioluminescence in any of the organs investigated

Q: And the EC50 (ERs; ERE-Luc B17 cells (MCF-7 clone), 24 h, luciferase activity, sigmoidal dose-response, read-out: EC50 (transactivation potency))?
A: 1.3 nM

Q: And the fold induction at 10 µM (ERs; ERE-Luc B17 cells, 10^-5 M of compound respect to vehicle)?
A: 2.6

Q: What about the “number of macrophages (Iba1 positive) in the wound area lower than in controls” value (MITO-Luc mice [2]) of the same molecule?
A: 25%

Q: And the wound area reduction (MITO-Luc mice [3])?
A: 73%
